In patent publication US20040058980A1, “Useful aroyl pyrrole heteroaryl methanones and methanols” (priority 2001, published 2004):
Structures can show the parent of a compound that is named as a salt. Marks after values point to notes of the source that are not given here.

Assays:
toxic extensor seizure = experiment: Mouse maximal electroshock test (MES), anticonvulsant model; format: in vivo; settings: for MES Response, number of mice protected/number of mice tested: oral, 300 mpk
Description: Procedure for Testing in Mouse Anticonvulsant Model
The activity of the present compounds as anticonvulsant agents was determined using a standard mouse “maximal electroshock test” (MES). In this test, activity was indicated by a block of the […] extensor seizure, as described by Swinyard, et al. (J. Pharmacol. Exptl. Therap., 1952, 106, 319). A more recent description of current anticonvulsant drug screening is given in Swinyard, et al., in Epilepsia, 1978, 19, 409.
The anticonvulsant activity of the instant compounds is shown in Table 5 and was evaluated according to the Swinyard (1952) method. The abbreviations used in the table have the following meanings: mpk refers to the dose orally administered in “mg per Kg;” and, ED50 refers to the “50% Effective Dose” orally administered in mpk. The values marked by an * represent the number of mice protected/number of mice tested; therefore, a value of 3/3 represents that the number of mice protected matched the number of mice tested at the indicated dose.

mechanical allodynia = experiment: Chung Model (spinal nerve ligation), mechanical allodynia with von Frey hairs; format: in vivo; set-up: key to Chung Model result in words (IA): IA: inactive at the screening dose; settings: rat; for ED50 in the Chung Model: orally administered; for Chung Model result in words (IA) / % MPE (Maximum Possible Effect) in the Chung Model: oral, screening dose (not given)
From the text: Procedure for Testing Antiallodynic Effect
The procedure used to detect the antiallodynic effect of a compound of the present invention for which there is a good correlation with human efficacy for the treatment of pain is the procedure for the measurement of allodynia found in the Chung Model (Kim S. H. and Chung J. M., An Experimental Model for Peripheral Neuropathy Produced by Segmental Spinal Nerve Ligation in the Rat, Pain, 1992, 50, 355-363). The antiallodynic effect of the composition of the present invention in the Chung Model is expressed in % MPE (Maximum Possible Effect).
Male Sprague-Dawley rats, weighing approximately 200 g each were anesthetized with isoflurane. The spinal nerve at the level of L5 was exposed through an incision just left of the dorsal midline and tightly ligated with 6-0 silk. At various times after surgery, animals were tested for mechanical allodynia with von Frey hairs (monofilaments which are calibrated to bend under a certain amount of pressure, ranging from 0.41 to 15.1 g). In order to calculate a paw withdrawal threshold (PWT), tactile allodynia was measured by recording the pressure at which the affected paw was withdrawn from graded stimuli according to the procedure of S. R. Chaplan, J. W. Pogrel, T. L. Yaksh, Role of Voltage-Dependent Calcium Channel Subtypes in Experimental Tactile Allodynia, J. Pharmacol. Exp. Ther., 1994, 269, 1117-1123. Normal rats can withstand at least 15 g of pressure without responding. Operated rats, however, can respond to as little as 0.25 g of pressure. The surgery was deemed successful if the animal responded with a PWT of less than 4 g of pressure applied to the affected paw. […] The PWT was used to calculate the % maximal possible effect (% MPE) according to the formula:
% MPE=100×[(PWT−CT)/(CO−CT)];
wherein PWT is defined as Paw Withdrawal Threshold, CT is Control Threshold, and CO is Cut Off (defined as 15 g).
The sham operation consisted of a similar surgery; the spinal nerve was visualized without being ligated.
Compounds selected from Formula (I) and Formula (II) were tested for activity in treating or modulating neuropathic pain by being dissolved or suspended in either water or hydroxypropyl methylcellulose, respectively. […] were fasted overnight prior to dosing. Animals were orally dosed and dosage volumes were calculated on a 4 mL/kg basis.

[1] = tested on: voltage-gated sodium channels; experiment: [14C]guanidinium flux assay, veratridine-stimulated SK-N-SH cells; format: cell-based; settings: 100 μM compound, 100 μM veratridine
Description: Screening Assay for Voltage-Gated Sodium Channel Antagonists
[^14C] Guanidinium Flux Assay
SK-N-SH neuroblastoma cells were maintained in a propagation medium containing modified Eagle's medium and 10% (v/v) fetal bovine serum and were incubated at 37° C. in a 5% CO2 atmosphere. Only cells with fewer than 20 passages were used in each assay. All drugs were prepared in DMSO, and the final concentration of solvent was less than 0.1% (v/v). Veratridine, a toxin that selectively promotes persistent activation of voltage-gated sodium channels, served as the stimulus.
SK-N—SH cells were plated at 1×10^5 cells/well in 96-well Cytostar-T microscintillating plates in propagation medium and experiments were performed 6-7 days after plating. Prior to assay, the SK-N-SH cells were washed twice with assay buffer containing 50 mM HEPES (pH 7.45), 5.4 mM potassium chloride, 0.8 mM magnesium chloride, 130 mM choline chloride, 5.5 mM glucose and 0.1 mg/mL bovine serum albumin. Next, the plates were allowed to equilibrate for 10 min at 37° C. in assay buffer. […] The 96-well dosing plate was prepared by mixing 25 μL of a drug/assay buffer solution per well with 25 μL of 0.7 μCi/mL [^14C]guanidine hydrochloride in assay buffer. […] The plates were incubated for 1 hr at room temperature and the radioactivity was counted in a 1450 Microbeta scintillation counter. […]

melting point [°C]	SMILES	further results
182 to 184	Cn1cc(C(=O)c2ccnc(Cl)c2)cc1C(=O)c1ccc(Cl)cc1 [Cpd 19, (4-Chlorophenyl)-[4-(2-chloropyridine-4-carbonyl)-1-methyl-1H-pyrrol-2-yl]methanone]	
138 to 139	Cn1cc(C(=O)c2ccccn2)cc1C(=O)c1ccc(Cl)cc1 [Cpd 6, [5-(4-Chlorobenzoyl)-1-methyl-1H-pyrrol-3-yl]pyridin-2-yl-methanone]	
155 to 157	Cn1cc(C(=O)c2ccc(F)cc2)cc1C(=O)c1ccncc1 [Cpd 11, (4-Fluorophenyl)-[1-methyl-5-(pyridine-4-carbonyl)-1H-pyrrol-3-yl]methanone]	MES Response, number of mice protected/number of mice tested (toxic extensor seizure): 0/1* @ 300 mpk
85 to 88	Cc1c(C(=O)c2ccc(F)cc2)c(C)n(C)c1C(=O)c1cccnc1 [Cpd 17, (4-Fluorophenyl)-[1,2,4-trimethyl-5-(pyridine-3-carbonyl)-1H-pyrrol-3-yl]methanone]	
220 to 223	Cl.Cn1cc(C(=O)c2ccc(F)cc2)cc1C(=O)c1cccnc1 [Cpd 7, (4-Fluorophenyl)-[1-methyl-5-(pyridine-3-carbonyl)-1H-pyrrol-3-yl]methanone Hydrochloride]	ED50 in the Chung Model (mechanical allodynia): ED50 = 22 mpk
132 to 133	Cn1cc(C(=O)c2ccc3ccccc3c2)cc1C(=O)c1cccnc1 [Cpd 8, [1-Methyl-5-(pyridine-3-carbonyl)-1H-pyrrol-3-yl]naphthalen-2-yl-methanone]	MES Response, number of mice protected/number of mice tested (toxic extensor seizure): 0/1* @ 300 mpk
159 to 161	Cn1cc(C(=O)c2ccc(F)cc2)cc1C(=O)c1ccccn1 [Cpd 10, (4-Fluorophenyl)-[1-methyl-5-(pyridine-2-carbonyl)-1H-pyrrol-3-yl]methanone]	MES Response, number of mice protected/number of mice tested (toxic extensor seizure): 0/1* @ 300 mpk
134 to 136	Cc1ccc(C(=O)c2cc(C(=O)c3ccncc3)cn2C)cc1.Cl [Cpd 3, [1-Methyl-5-(4-methyl benzoyl)-1H-pyrrol-3-yl]pyridin-4-ylmethanone Hydrochloride]	
243 to 245	Cl.Cn1cc(C(=O)c2ccncc2)cc1C(=O)c1cccs1 [Cpd 4, [1-Methyl-5-(thiophene-2-carbonyl)-1H-pyrrol-3-yl]pyridin-4-ylmethanone Hydrochloride]	MES Response, number of mice protected/number of mice tested (toxic extensor seizure): 0/1* @ 300 mpk; Chung Model result in words (IA) (mechanical allodynia): IA
150 to 152	Cn1cc(C(=O)c2ccc(Cl)cc2)cc1C(=O)c1ccc(Cl)nc1 [Cpd 9, (4-Chlorophenyl)-[5-(6-chloropyridine-3-carbonyl)-1-methyl-1H-pyrrol-3-yl]methanone]	
174 to 176	Cc1c(C(O)c2ccncc2)c(C)n(C)c1C(=O)c1ccc(Cl)cc1 (stereo not drawn) (as salt: hydrochloride) [Cpd 18, (4-Chlorophenyl)-[4-(hydroxypyridin-4-yl-methyl)-1,3,5-trimethyl-1H-pyrrol-2-yl]methanone]	
	Cn1cc(C(=O)c2cc[n+]([O-])cc2)cc1C(=O)c1ccc(Cl)cc1 [Cpd 15, (4-Chlorophenyl)-[1-methyl-4-(1-oxypyridine-4-carbonyl)-1H-pyrrol-2-yl]methanone]	% MPE (Maximum Possible Effect) in the Chung Model (mechanical allodynia): 7.9%
	Cl.Cn1cc(C(=O)c2cccnc2)cc1C(=O)c1ccc(Cl)cc1.Cn1cc(C(=O)c2cccnc2)cc1C(=O)c1ccc(Cl)cc1.O [Cpd 5, [5-(4-Chlorobenzoyl)-1-methyl-1H-pyrrol-3-yl]pyridin-3-ylmethanone Hydrochoride Hydrate [2:1:1]]	% MPE (Maximum Possible Effect) in the Chung Model (mechanical allodynia): 9%
174 to 175	Cn1cc(C(=O)c2ccncc2)cc1C(=O)c1ccc(Cl)cc1 [Cpd 1, [5-(4-Chlorobenzoyl)-1-methyl-1H-pyrrol-3-yl]pyridin-4-ylmethanone]	MES Response ED50 (toxic extensor seizure; orally administered): ED50 = 156.97 mpk; ED50 in the Chung Model (mechanical allodynia): ED50 = 22 mpk
198 to 200	Cn1cc(C(=O)c2cnc[nH]2)cc1C(=O)c1ccc(Cl)cc1 [Cpd 13, (4-Chlorophenyl)-[4-(3H-imidazole-4-carbonyl)-1-methyl-1H-pyrrol-2-yl]methanone]	Chung Model result in words (IA) (mechanical allodynia): IA
127 to 129	Cn1cc(C(=O)c2ccncc2)cc1C(=O)c1ccccc1 [Cpd 2, (5-Benzoyl-1-methyl-1H-pyrrol-3-yl) pyridin-4-ylmethanone]	

SMILES	melting point [°C]	further results
Cn1cc(C(O)c2ccncc2)cc1C(=O)c1ccc(Cl)cc1 (stereo not drawn) [Cpd 12, (4-Chlorophenyl)-[4-(hydroxypyridin-4-yl-methyl)-1-methyl-1H-pyrrol-2-yl]-methanone]	145 to 146	% GFI (% guanidinium flux inhibition) @ 100 μM [1]: 4 @ 100%
